According to publication PMC12056667 (Chemical Science, 2025):
Several values for one entry are separate records, joined by “and”; a condition that tells them apart may be missing. Equal values may be shown once. Read-outs that look alike come from different tables or passages of the source.

Key:
[1] = biological target: T1, Tet(X4) (Escherichia coli, UniProt A0A3T0V9Y5); assay: FP competitive displacement of probe 6; type: binding; conditions: IC50app, 25 nM 6, 40 nM Tet(X4), 5 mM MgCl2, 1 μM FAD, 100 mM Tris pH 7.0, 0.01% Triton X-100
Method: A 2× solution containing 80 nM Tet(X4), 2 μM FAD and 10 mM MgCl2 in the assay buffer was dispensed into the first 22 columns of a 384-well black, non-binding microtiter plate (Greiner Bio-One), 12.5 μL per well, using a microplate reagent dispenser. A solution of 2 μM FAD and 10 mM MgCl2 in the assay buffer was dispensed into the remaining columns to serve as a no enzyme control. A 3-fold, 10-point dilution series of substrates and inhibitors was made in DMSO in a V-bottom 96-well plate (Greiner Bio-One) with a highest concentration of 5 mM or 0.5 mM. Into one column was added DMSO with no inhibitor or substrate, to serve as a positive control. Tigecycline was included as a reference on every plate to ensure reproducibility. 0.5 μL of each dilution was transferred in quadruplicate to the 384-well plate containing enzyme solution using a CyBi-Well liquid-handling robot (CyBio). A solution of 50 nM 6 in the assay buffer was then dispensed, with 12.5 μL per well. The plate was briefly centrifuged (1000 rpm), then incubated at ambient temperature for 30 min prior to measuring the FP. Data points were normalised between the positive and negative controls. Normalised % response was plotted as a function of log10([Inhibitor]), and the IC50^app was determined by fitting the data to the equation: Y = Bottom + (top-bottom)/(1 + 10^Log(IC50) − X) × HillSlope in GraphPad Prism 9.4.1, where Y = % response and X = log10([Inhibitor]). Wells with unusual fluorescence intensities were manually identified and removed from the analysis. […]

[2] = biological target: T1, Tet(X4); assay: biochemical; conditions: 20 μM tigecycline, 50 nM Tet(X4), 100 μM NADPH, 5 mM MgCl2, 1 μM FAD, 100 mM TAPS pH 8.5; read-out: IC50, UPLC assay
Method: We then tested the binding of reported type 1 TDase inhibitors to Tet(X4) (Fig. 3f, ESI Fig. S17 ^†).[33,38,39] […] We also developed a complementary endpoint activity assay where the turnover of tigecycline by Tet(X4) in a 96-well plate was quenched by addition of 1%v/v formic acid and analysed chromatographically. The peak integrals of tigecycline and its hydroxylated degradation product at 254 nm following UPLC analysis were measured to determine turnover (Fig. 5a).
[…] A 3-fold, 10-point dilution series of the substrates and inhibitors was made in DMSO with a top concentration of 10 mM, unless otherwise stated, and transferred to the enzyme solution using a CyBi-Well liquid-handling robot (CyBio), 1 μL per well. On each plate, a column of no enzyme negative controls and no inhibitor (DMSO only) positive controls were included. The plate was incubated at 30 °C for 15 min. A solution containing 100 mM TAPS (pH 8.5), 40 μM tigecycline and 200 μM NADPH was then dispensed, with 49 μL per well. The plate was incubated at 30 °C for 20 min at 600 rpm. 10 μL of 10%v/v formic acid solution was then dispensed into all wells. Samples were analysed using an ACQUITY H-Class PLUS UPLC instrument (Waters) equipped with a pre-equilibrated ACQUITY BEH C18 column ([…], […], Waters) using a gradient of 1–50%v/v acetonitrile with 0.1%v/v formic acid in water with 0.1%v/v formic acid over 1.83 minutes at a flow rate of 0.5 mL min^−1. Instrument control and data processing were performed using MassLynx V4.1 software. The peaks representing tigecycline and 11a-hydroxy-tigecycline were integrated, used to calculate % conversion and then normalised between positive and negative controls. The normalised % response was plotted as a function of log10[Inhibitor], and the IC50 determined as described above.

[3] = system: E. coli TOP10 containing plasmid pBAD-TOPO-Tet(X4); assay: Broth microdilution MIC and checkerboard assay; type: cell-based, Escherichia coli; conditions: for MIC: Escherichia coli; for Antibiotic MIC / Tet(X) inhibitor MIC: alone; for Combination (antibiotic/inhibitor) MIC: inhibitor: inhibitor in combination with tigecycline; for Combination (antibiotic/inhibitor) MIC: inhibitor / Combination (antibiotic/inhibitor) MIC: antibiotic: lowest FICI; for Combination (antibiotic/inhibitor) MIC: antibiotic: tigecycline in combination with the inhibitor; for FICI / Outcome: with tigecycline
Excerpt: Tet(X4) was sub-cloned from the Tet(X4) pET28b-(+) expression vector via TOPO cloning. The insert was amplified using the taq polymerase with the forward primer 5′- […]-3′ and the reverse primer 5′- […]-3’. Following PCR purification (Thermo Fisher Scientific), the A-tailed PCR product was ligated into the pBAD-TOPO vector using a TOPO cloning kit (Invitrogen) according to the manufacturer's protocol. Following amplification in E. coli NEB5α cells (NEBiolabs), the fidelity of the insert was confirmed by Sanger sequencing (Eurofins). For microbiological experiments, E. coli TOP10 cells were used as the recipient strain. Cells were plated on Mueller-Hinton agar (MHA) plates containing ampicillin at 100 μg mL^−1. The introduction of pBAD-TOPO-Tet(X4) was confirmed by colony PCR. Strains were stored in a freezer at −80 °C in cryopreservation beads.
(§1) MIC tests and checkerboard assays were performed in U-bottom, 96-well microtiter plates using a modified broth microdilution protocol following CLSI guidelines. Cation-adjusted Mueller-Hinton Broth (CAMHB) was prepared fresh on the day of testing.[74] […] Bacterial colonies were selected from an overnight culture on MHA plates (supplemented with 0.2%w/vL-arabinose for E. coli TOP10 containing pBAD-TOPO-Tet(X4)) and were suspended in 0.9% saline solution to achieve a 0.5 McFarland standard. A 100 μL aliquot of this suspension was then diluted into 9.9 mL of CAMHB to yield approximately 1.5 × 10^6 cfu mL^−1. 50 μL of the suspension was then added to each well of a microtiter plates. Plates were incubated at 37 °C for 18 h. At least 2 replicates were conducted for each combination. E. coli TOP10 + pBAD-TOPO-Tet(X4) cells were grown in the absence and presence of 0.2%w/vL-arabinose. Analysis of the MIC and checkerboard results were carried out by visual inspection of growth, with and without resazurin dye, an oxidation–reduction indicator.[75] As a measure of synergy, fractional inhibitory concentration index (FICI) was calculated as FICA + FICB, where FICA and FICB are the MICcombination/MICalone for each agent, respectively.[76] Results were interpreted as follows: synergistic (<0.5), indifferent (1.0–4.0) or antagonistic (>4.0).[64] In cases where the MIC exceeded or was below the measured range, the borderline value was taken to calculate the FIC index.

[4] = system: Acinetobacter spp. NT3-1 – tet(X3); assay: microbe, parasite or virus in culture; type: cell-based; conditions: for Antibiotic MIC: alone
Method: (§2) MIC tests and checkerboard assays were performed in U-bottom, 96-well microtiter plates using a modified broth microdilution protocol following CLSI guidelines. Cation-adjusted Mueller-Hinton Broth (CAMHB) was prepared fresh on the day of testing.[74] In brief, assays were set up in a total volume of 100 μL per well and titrations comprised seven 2-fold dilutions of inhibitors and ten 2-fold dilutions of tigecycline in CAMHB. Bacterial colonies were selected from an overnight culture on MHA plates (supplemented with 0.2%w/vL-arabinose for E. coli TOP10 containing pBAD-TOPO-Tet(X4)) and were suspended in 0.9% saline solution to achieve a 0.5 McFarland standard. A 100 μL aliquot of this suspension was then diluted into 9.9 mL of CAMHB to yield approximately 1.5 × 10^6 cfu mL^−1. 50 μL of the suspension was then added to each well of a microtiter plates. Plates were incubated at 37 °C for 18 h. At least 2 replicates were conducted for each combination. E. coli TOP10 + pBAD-TOPO-Tet(X4) cells were grown in the absence and presence of 0.2%w/vL-arabinose. Analysis of the MIC and checkerboard results were carried out by visual inspection of growth, with and without resazurin dye, an oxidation–reduction indicator.[75] As a measure of synergy, fractional inhibitory concentration index (FICI) was calculated as FICA + FICB, where FICA and FICB are the MICcombination/MICalone for each agent, respectively.[76] Results were interpreted as follows: synergistic (<0.5), indifferent (1.0–4.0) or antagonistic (>4.0).[64] In cases where the MIC exceeded or was below the measured range, the borderline value was taken to calculate the FIC index.

[5] = system: Salmonella enterica T-2a – tet(X4); assay: microbe, parasite or virus in culture; type: cell-based; conditions: for Antibiotic MIC: alone, S. enterica T-2a
Method: as §2

[6] = system: Acinetobacter baumannii NT5-1 – tet(X5); assay: microbe, parasite or virus in culture; type: cell-based; conditions: for Antibiotic MIC: alone, A. baumannii NT5-1
Method: as §1

[7] = system: Escherichia coli T-24a – tet(X4); assay: microbe, parasite or virus in culture; type: cell-based; conditions: for Antibiotic MIC: alone
Method: as §1

[8] = system: Proteus penneri NT6-2 – tet(X6); assay: microbe, parasite or virus in culture; type: cell-based; conditions: for Antibiotic MIC: alone, P. penneri NT6-2
Method: as §1

[9] = induced with 0.2%w/v L-arabinose
[10] = inhibitor in combination with tigecycline, lowest FICI
[11] = tigecycline in combination with the inhibitor, lowest FICI

Compound: C=CC(=O)Nc1cccc(Oc2nc(Nc3ccc(N4CCN(C)CC4)cc3)nc3ccsc23)c1 [Olmutinib]
- IC50 ([1]; Tet(X4) (Polarization)): 17200 ± 3400 nM
- IC50 [2]: > 100 µM

Compound: CN(C)c1cc(NC(=O)CNC(C)(C)C)c(O)c2c1C[C@H]1C[C@H]3[C@H](N(C)C)C(O)=C(C(N)=O)C(=O)[C@@]3(O)C(O)=C1C2=O [Tigecycline]
- IC50 ([1]; FP assay): 18.6 ± 4.9 nM
- IC50 ([1]; Tet(X4) (Polarization)): 22 nM and 19 nM
- MIC ([3]; read-out: Tigecycline MIC, L-arabinose 0 %w/v): 0.25 µg/mL
- MIC ([3]; read-out: Tigecycline MIC, L-arabinose 0.0002 %w/v): 0.25 µg/mL
- MIC ([3]; read-out: Tigecycline MIC, L-arabinose 0.002 %w/v): 0.5 µg/mL
- MIC ([3]; read-out: Tigecycline MIC, L-arabinose 0.02 %w/v): 2 µg/mL
- MIC ([3]; read-out: Tigecycline MIC, L-arabinose 0.2 %w/v): 8 µg/mL
- MIC ([3]; read-out: Tigecycline MIC, L-arabinose 0.4 %w/v): 8 µg/mL
- Antibiotic MIC [3, 9]: 4 µg/mL
- Antibiotic MIC ([3]; without L-arabinose induction): 0.25 µg/mL
- Antibiotic MIC ([4]; Acinetobacter spp. NT3-1): 4 µg/mL
- Antibiotic MIC [5]: 32 µg/mL
- Antibiotic MIC [6]: 8 µg/mL
- Antibiotic MIC ([7]; E. coli T-24a): 16 µg/mL
- Antibiotic MIC [8]: 8 µg/mL

Compound: CCCCC1C(=O)N(c2ccccc2)N(c2ccccc2)C1=O [Phenylbutazone]
- IC50 ([1]; Tet(X4) (Polarization)): > 100000 nM
- IC50 [2]: > 100 µM

Compound: C[C@H]1c2cccc(O)c2C(=O)C2=C(O)[C@]3(O)C(=O)C(C(N)=O)=C(O)[C@@H](N(C)C)[C@@H]3[C@@H](O)[C@@H]21 [Doxycycline]
- IC50 ([1]; FP assay): 1580 ± 150 nM
- Antibiotic MIC ([3]; 0.2%w/v L-arabinose (Table S7)): 32 µg/mL
- Antibiotic MIC ([3]; without L-arabinose induction): 1 µg/mL
- Antibiotic MIC ([4]; Acinetobacter spp. NT3-1): 8 µg/mL
- Antibiotic MIC [5]: 32 µg/mL
- Antibiotic MIC [6]: 32 µg/mL
- Antibiotic MIC ([7]; E. coli T-24a): 32 µg/mL
- Antibiotic MIC [8]: 16 µg/mL

Compound: CN1CCN(CCCN2c3ccccc3Sc3ccc(Cl)cc32)CC1 [Prochlorperazine]
- MIC ([3]; read-out: Tet(X) Inhibitor MIC, alone, without L-arabinose induction): 64 µg/mL
- Tet(X) inhibitor MIC [3, 9]: 64 µg/mL
- Tet(X) inhibitor MIC ([3]; induced with 0.2%w/v L-arabinose, listed as prochlorperazine): 16 to 64 µg/mL
- reduction of the tigecycline MIC ([3]; at high concentrations of inhibitor, 0.2%w/v L-arabinose): 2–4 fold
- Combination (antibiotic/inhibitor) MIC: inhibitor ([3]; 0.2%w/v L-arabinose): 16 µg/mL
- Combination (antibiotic/inhibitor) MIC: inhibitor ([3]; without L-arabinose): 32 µg/mL
- Combination (antibiotic/inhibitor) MIC: antibiotic ([3]; 0.2%w/v L-arabinose): 2 µg/mL
- Combination (antibiotic/inhibitor) MIC: antibiotic ([3]; without L-arabinose): 0.13 µg/mL
- FICI ([3]; 0.2%w/v L-arabinose): 0.8
- Outcome ([3]; 0.2%w/v L-arabinose): Indifferent (indifferent (0.5–4.0))
- FICI ([3]; 0.2%w/v L-arabinose, listed as prochlorperazine): 0.5-1
- FICI ([3]; without L-arabinose): 1
- Outcome ([3]; without L-arabinose): indifferent (indifferent (0.5-4.0))
- MIC ([4]; Acinetobacter, read-out: Tet(X) Inhibitor MIC, alone, Acinetobacter spp. NT3-1): 8 µg/mL
- Combination (Antibiotic/Inhibitor) MICs: inhibitor [4, 10]: 8 µg/mL
- Combination (Antibiotic/Inhibitor) MICs: antibiotic [4, 11]: 4 µg/mL
- FICI ([4]; with tigecycline): 2
- Outcome ([4]; with tigecycline): indifferent (indifferent (0.5-4.0))
- MIC ([5]; Salmonella enterica, read-out: Tet(X) Inhibitor MIC): > 128 µg/mL
- Combination (Antibiotic/Inhibitor) MICs: inhibitor [5, 10]: 64 µg/mL
- Combination (Antibiotic/Inhibitor) MICs: antibiotic [5, 11]: 16 µg/mL
- FICI ([5]; with tigecycline): 1
- Outcome ([5]; with tigecycline): indifferent (indifferent (0.5-4.0))
- MIC ([6]; Acinetobacter baumannii, read-out: Tet(X) Inhibitor MIC): 128 µg/mL
- Combination (Antibiotic/Inhibitor) MICs: inhibitor [6, 10]: 64 µg/mL
- Combination (Antibiotic/Inhibitor) MICs: antibiotic [6, 11]: 1 µg/mL
- FICI ([6]; with tigecycline): 0.6
- Outcome ([6]; with tigecycline): indifferent (indifferent (0.5-4.0))
- MIC ([7]; Escherichia coli, read-out: Tet(X) Inhibitor MIC, alone, E. coli T-24a): 256 µg/mL
- Combination (Antibiotic/Inhibitor) MICs: inhibitor [7, 10]: 32 µg/mL
- Combination (Antibiotic/Inhibitor) MICs: antibiotic [7, 11]: 8 µg/mL
- FICI ([7]; with tigecycline): 0.6
- Outcome ([7]; with tigecycline): indifferent (indifferent (0.5-4.0))
- MIC ([8]; Proteus penneri, read-out: Tet(X) Inhibitor MIC): > 128 µg/mL
- Combination (Antibiotic/Inhibitor) MICs: inhibitor [8, 10]: 128 µg/mL
- Combination (Antibiotic/Inhibitor) MICs: antibiotic [8, 11]: 4 µg/mL
- FICI ([8]; with tigecycline): 2
- Outcome ([8]; with tigecycline): indifferent (indifferent (0.5-4.0))
